Structures can show the parent of a compound that is named as a salt.
Row | melting point | SMILES
1 | 175 °C | O=C(CN1CCN(c2ccc(C(F)(F)F)cn2)C(=O)C1)N1CCc2nc(-c3ccccc3)oc2C1 [compound 96, 4-[2-oxo-2-(2-phenyl-6,7-dihydro-4H-oxazolo[5,4-c]pyridin-5-yl)ethyl]-1-(5-trifluoromethylpyridin-2-yl)piperazin-2-one]
2 | 210 to 212 °C | COC(=O)c1ccc(N2C[C@@H](C)N(CC(=O)N3CCc4nn(-c5ccccc5)cc4C3)[C@@H](C)C2)nc1 (as salt: HCl) [compound 23, 6-{(3S,5R)-3,5-dimethyl-4-[2-oxo-2-(2-phenyl-2,4,6,7-tetrahydropyrazolo[4,3-c]pyridin-5-yl)ethyl]piperazin-1-yl}nicotinic acid methyl ester]
3 | 165 to 167 °C | C[C@@H]1CN(CC(=O)N2CCc3nn(-c4ccccc4)cc3C2)[C@@H](C)CN1c1ccc(C(=O)O)cn1 [compound 53, 6-{(2R,5S)-2,5-dimethyl-4-[2-oxo-2-(2-phenyl-2,4,6,7-tetrahydropyrazolo[4,3-c]pyridin-5-yl)ethyl]piperazin-1-yl}nicotinic acid]
4 | 145 to 147 °C | C[C@@H]1CN(c2ccc(C(F)(F)F)cn2)C[C@H](C)N1CC(=O)N1CCc2nc(-c3ccc(F)cc3)[nH]c2C1 [compound 124, 2-[(2S,6R)-2,6-dimethyl-4-(5-trifluoromethylpyridin-2-yl)piperazin-1-yl]-1-[2-(4-fluorophenyl)-3,4,6,7-tetrahydroimidazo[4,5-c]pyridin-5-yl]ethanone]
5 | 230 to 231 °C | Cn1nnc(-c2ccc(N3C4CCC3CN(CC(=O)N3CCc5nn(-c6ccccc6)cc5C3)C4)nc2)n1
6 | 182 to 183 °C | C[C@@H]1CN(c2ccc(-c3nnn(C)n3)cn2)C[C@H](C)N1CC(=O)N1CCc2nn(-c3ccccc3)cc2C1 [compound 87, 2-{(2S,6R)-2,6-dimethyl-4-[5-(2-methyl-2H-tetrazol-5-yl)pyridin-2-yl]piperazin-1-yl}-1-(2-phenyl-2,4,6,7-tetrahydropyrazolo[4,3-c]pyridin-5-yl)ethanone]
7 | 191 to 192 °C | COC(=O)c1ccc(N2CCN(CC(=O)N3CCc4nc(-c5ccccc5)sc4C3)CC2=O)nc1 [compound 25, 6-{2-oxo-4-[2-oxo-2-(2-phenyl-6,7-dihydro-4H-thiazolo[5,4-c]pyridin-5-yl)ethyl]piperazin-1-yl}nicotinic acid methyl ester]
8 | 193 °C | O=C(CN1CC2CCC(C1)N2c1ncc(F)cn1)N1CCc2nc(-c3ccccc3)oc2C1
9 | 135 to 136 °C | CC(C)OC(=O)c1ccc(N2C[C@@H](C)N(CC(=O)N3CCc4nn(-c5ccccc5)cc4C3)[C@@H](C)C2)nc1 [compound 98, 6-{(3S,5R)-3,5-dimethyl-4-[2-oxo-2-(2-phenyl-2,4,6,7-tetrahydropyrazolo[4,3-c]pyridin-5-yl)ethyl]piperazin-1-yl}nicotinic acid isopropyl ester]
10 | 192 to 193 °C | O=C(CN1CC2CCC(C1)N2c1ccc(C(F)(F)F)cn1)N1CCc2nn(-c3ccc(C(F)(F)F)cn3)cc2C1
11 | 240 to 242 °C | O=C(CN1CC2CCC(C1)N2c1ncc(F)cn1)N1CCc2cc(-c3ccccc3)[nH]c2C1
12 | 200 to 202 °C | O=C(CN1CC2CCC(C1)N2c1ncc(F)cn1)N1CCc2nc(-c3cccnc3)sc2C1
13 | 191 to 193 °C | COc1ccc(-c2nc3c(s2)CN(C(=O)CN2CCN(c4ccc(C(F)(F)F)cn4)C(=O)C2)CC3)cc1 [compound 34, 4-{2-[2-(4-methoxyphenyl)-6,7-dihydro-4H-thiazolo[5,4-c]pyridin-5-yl]-2-oxoethyl}-1-(5-trifluoromethylpyridin-2-yl)piperazin-2-one]
14 | 165 to 168 °C | O=C(CN1CC2CCC(C1)N2c1cccnc1)N1CCc2nn(-c3ccccc3)cc2C1
15 | 165 to 166 °C | C[C@@H]1CN(c2ccc(Cl)cn2)C[C@H](C)N1CC(=O)N1CCc2nn(-c3ccc(C(F)(F)F)cn3)cc2C1 [compound 112, 2-[(2S,6R)-4-(5-chloropyridin-2-yl)-2,6-dimethylpiperazin-1-yl]-1-[2-(5-trifluoromethylpyridin-2-yl)-2,4,6,7-tetrahydropyrazolo[4,3-c]pyridin-5-yl]ethanone]
16 | 148 to 150 °C | O=C(CN1CC2CCC(C1)N2c1ncc(F)cn1)N1CCc2c(cnn2-c2ccccc2)C1
17 | 207 to 208 °C | O=C(O)c1ccc(N2CC3CCC(C2)N3CC(=O)N2CCc3nn(-c4ccccc4)cc3C2)nc1
18 | 159 to 160 °C | COC(=O)c1ccc(N2C3CCC2CN(CC(=O)N2CCc4nc(-c5ccc(OC)cc5)sc4C2)C3)nc1
19 | 148 to 150 °C | O=C(CN1CC2CCC(C1)N2c1ccc(C(F)(F)F)cn1)N1CCc2nc(-c3ccc(F)cc3)[nH]c2C1
20 | 196 to 198 °C | O=C(CN1CC2CCC(C1)N2c1ncc(F)cn1)N1CCc2nc(-c3ccc(F)cc3)sc2C1
21 | 190 to 191 °C | C[C@@H]1CN(c2ccc(C(F)(F)F)cn2)C[C@H](C)N1CC(=O)N1CCc2nn(-c3ccc(C(F)(F)F)cn3)cc2C1 [compound 103, 2-[(2S,6R)-2,6-dimethyl-4-(5-trifluoromethylpyridin-2-yl)piperazin-1-yl]-1-[2-(5-trifluoromethylpyridin-2-yl)-2,4,6,7-tetrahydropyrazolo[4,3-c]pyridin-5-yl]ethanone]

Row | melting point | SMILES
22 | 193 to 194 °C | O=C(CN1CC2CCC(C1)N2c1ncc(F)cn1)N1CCc2nc(-c3ccncc3)sc2C1
23 | 162 to 163 °C | COC(=O)c1ccc(N2CC3CCC(C2)N3CC(=O)N2CCc3nc(-c4ccccc4)sc3C2)nc1
24 | 203 to 204 °C | C[C@@H]1CN(c2ccc3ccccc3n2)C[C@H](C)N1CC(=O)N1CCc2nn(-c3ccccc3)cc2C1 [compound 129, 2-((2S,6R)-2,6-dimethyl-4-quinolin-2-ylpiperazin-1-yl)-1-(2-phenyl-2,4,6,7-tetrahydropyrazolo[4,3-c]pyridin-5-yl)ethanone]
25 | 99 to 100 °C | CCn1cc2c(n1)CCN(C(=O)CN1CC3CCC(C1)N3c1ccc(C(F)(F)F)cn1)C2
26 | 139 to 140 °C | O=C(CN1CCN(c2ccc(C(F)(F)F)cn2)C(=O)C1)N1CCc2nn(-c3ccccn3)cc2C1 [compound 119, 4-[2-oxo-2-(2-pyridin-2-yl-2,4,6,7-tetrahydropyrazolo[4,3-c]pyridin-5-yl)ethyl]-1-(5-trifluoromethylpyridin-2-yl)piperazin-2-one]
27 | 103 to 105 °C | C[C@@H]1CN(c2ccc(S(C)(=O)=O)cn2)C[C@H](C)N1CC(=O)N1CCc2nn(-c3ccccc3)cc2C1 [compound 131, 2-[(2S,6R)-4-(5-methanesulphonylpyridin-2-yl)-2,6-dimethylpiperazin-1-yl]-1-(2-phenyl-2,4,6,7-tetrahydropyrazolo[4,3-c]pyridin-5-yl)ethanone]
28 | 198 to 199 °C | C[C@@H]1CN(c2ccc(-c3nnnn3C)cn2)C[C@H](C)N1CC(=O)N1CCc2nn(-c3ccccc3)cc2C1 [compound 86, 2-{(2S,6R)-2,6-dimethyl-4-[5-(1-methyl-1H-tetrazol-5-yl)pyridin-2-yl]piperazin-1-yl}-1-(2-phenyl-2,4,6,7-tetrahydropyrazolo[4,3-c]pyridin-5-yl)ethanone]
29 | 130 to 132 °C | O=C(CN1CC2CCC(C1)N2c1ncc(F)cn1)N1CCc2nc(-c3ccccc3)[nH]c2C1
30 | 155 to 156 °C | O=C(CN1CCN(c2cccc(Cl)n2)CC1)N1CCc2nn(-c3ccccc3)cc2C1 [compound 114, 2-[4-(6-chloropyridin-2-yl)piperazin-1-yl]-1-(2-phenyl-2,4,6,7-tetrahydropyrazolo[4,3-c]pyridin-5-yl)ethanone]
31 | 217 to 218 °C | COC(=O)c1ccc(N2C3CCC2CN(CC(=O)N2CCc4nn(-c5ccc(C(F)(F)F)cn5)cc4C2)C3)nc1
32 | 147 to 149 °C | Cn1cc2c(n1)CCN(C(=O)CN1CC3CCC(C1)N3c1ncc(F)cn1)C2
33 | 147 to 150 °C | C[C@@H]1CN(c2ccc(C(=O)O)cn2)C[C@H](C)N1CC(=O)N1CCc2nn(-c3ccccn3)cc2C1 [compound 140, 6-{(3S,5R)-3,5-dimethyl-4-[2-oxo-2-(2-pyridin-2-yl-2,4,6,7-tetrahydropyrazolo[4,3-c]pyridin-5-yl)ethyl]piperazin-1-yl}nicotinic acid]
34 | 220 to 221 °C | C[C@@H]1CN(CC(=O)N2CCc3nc(-c4ccccc4)sc3C2)[C@@H](C)CN1c1ccc(C(=O)O)cn1 [compound 63, 6-{(2R,5S)-2,5-dimethyl-4-[2-oxo-2-(2-phenyl-6,7-dihydro-4H-thiazolo[5,4-c]pyridin-5-yl)ethyl]piperazin-1-yl}nicotinic acid]
35 | 168 to 169 °C | C[C@@H]1CN(c2ccc(C(F)(F)F)nc2)C[C@H](C)N1CC(=O)N1CCc2nc(-c3ccccc3)sc2C1 [compound 18, 2-[(2S,6R)-2,6-dimethyl-4-(6-trifluoromethylpyridin-3-yl)piperazin-1-yl]-1-(2-phenyl-6,7-dihydro-4H-thiazolo[5,4-c]pyridin-5-yl)ethanone]
36 | 198 to 200 °C | O=C(CN1CCN(c2ccc(C(F)(F)F)cn2)C(=O)C1)N1CCc2nc(-c3ccccc3)[nH]c2C1 [compound 78, 4-[2-oxo-2-(2-phenyl-3,4,6,7-tetrahydroimidazo[4,5-c]pyridin-5-yl)ethyl]-1-(5-trifluoromethylpyridin-2-yl)piperazin-2-one]
37 | 155 °C | O=C(CN1CC2CCC(C1)N2c1ccc(C(F)(F)F)cn1)N1CCc2cc(-c3ccccc3)oc2C1
38 | 170 to 171 °C | O=C(CN1CC2CCC(C1)N2c1ccc(C(F)(F)F)cn1)N1CCc2nn(-c3ccccn3)cc2C1
39 | 235 to 236 °C | CCOC(=O)c1ccc(N2C[C@@H](C)N(CC(=O)N3CCc4nn(-c5ccccc5)cc4C3)[C@@H](C)C2)nc1 (as salt: HCl) [compound 79, 6-{(3S,5R)-3,5-dimethyl-4-[2-oxo-2-(2-phenyl-2,4,6,7-tetrahydropyrazolo[4,3-c]pyridin-5-yl)ethyl]piperazin-1-yl}nicotinic acid ethyl ester]
40 | 198 to 200 °C | N#Cc1ccc(N2C3CCC2CN(CC(=O)N2CCc4nn(-c5ccccc5)cc4C2)C3)nc1
41 | 190 to 192 °C | Cc1nc(-c2ccc(N3C4CCC3CN(CC(=O)N3CCc5nc(-c6ccccc6)sc5C3)C4)nc2)no1
